Entries after “also recorded” stand apart in the source; their conditions may differ. Read-outs that look alike come from different tables or passages of the source.

What is called Kd is the free concentration of one partner at which half of the binding sites on the other are occupied at equilibrium, for simple one-to-one binding.

In assay [1] the target is T1, human PD-L2 (hPD-L2) (Homo sapiens, UniProt Q9BQ51).
T1 construct: The hPD-L2* vector included amino acids L20-T220, an Avi Tag and a hexahistidine tag; hexahistidine tag; made in house; host or cells: Expi293F
T1 sequence (Q9BQ51 20-220): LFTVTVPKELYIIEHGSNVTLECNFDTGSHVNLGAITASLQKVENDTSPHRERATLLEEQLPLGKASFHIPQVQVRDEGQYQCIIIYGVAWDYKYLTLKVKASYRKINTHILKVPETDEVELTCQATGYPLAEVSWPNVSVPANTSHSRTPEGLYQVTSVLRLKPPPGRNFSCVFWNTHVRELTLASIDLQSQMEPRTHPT
In words: Radiolabeled [35S] peptide binding assay on hPD-L2*. The following applies: [35S]-labeled peptide. Here is the method: (§1) SPAM Peptide Selectively Binds to hPD-L1. SPAM was also tested for binding specificity towards mouse PD-L1 (mPD-L1) and human PD-L2 (hPD-L2) using radioactive binding assays. SPAM peptide mRNA was translated in vitro in the presence of [^35S]-methionine to generate [^35S]-labeled SPAM peptide.
(§2) [^35S]-labeled peptides were translated as described above by including 2 μCi labeled methionine (Perkin Elmer) per 10 pmol of template in the translation reaction. Each peptide was tested with a […] (for X9-library derived peptides) (SEQ ID NO: 11) or a […] (for X17-library derived peptides) (SEQ ID NO: 12) C-terminal sequence. […] The supernatant was removed and was counted. The beads were subsequently washed three times with 1 mL of blocking buffer and the washes were also counted. Finally, the beads were resuspended in 1 mL of blocking buffer and were counted separately. The ratio of the counts remaining on the beads to the total counts added to the binding reaction (the sum of the counts for supernatant, washes, and beads) was calculated to determine the percent bound.

In assay [2] the target is T2, CHO-mPD-L1 cells which express mPD-L1 (Mus musculus, UniProt Q9EP73).
T2 construct: expressed in transfected cells; host or cells: CHO
In words: Antibody competition by flow cytometry on CHO-mPD-L1 cells. In kind it is cell-based. The following applies: pre-treatment 0-20 μM, 50 nM antibody. Here is the method:
We performed similar experiments with CHO-mPD-L1 cells which express mPD-L1 to determine if this effect was specific to hPD-L1 expression. We have developed two cross-reactive anti-hPD-L1/mPD-L1 antibodies, 16373 and 16377. These antibodies were labeled with Fluorescein, titrated against CHO-hPD-L1 and CHO-mPD-L1 cells (FIG. 12B-C) and subjected to competition experiments as described above.
The cells were washed once with cold serum free DMEM and incubated with 1 nM FAM-Atezolizumab, 10 nM FAM-Avelumab, 50 nM FAM-16373, or 50 nM FAM-16377 in serum free DMEM at 4° C. for 30 min. Cells were then washed three times with cold serum free DMEM. Cells were subsequently processed by flow cytometry with a BD FACSCalibur system using the FL1 channel. FlowJo v10.1 was used to gate to the major population and median FL1 fluorescence reported.
On the technique in general: Flow cytometry measures light scatter and fluorescence of single cells or particles in a stream.

Assay [3] addresses T3, hPD-L1 (Homo sapiens, UniProt Q9NZQ7). In words: Radiolabeled [35S] peptide binding assay on immobilized hPD-L1. Details: designed from A18 to T239 with a methionine added to the N-terminus; hexahistidine tag (C); made in house. The note with it: hPD-L1 on streptavidin agarose. Here is the method: as §2
Target sequence in this assay (Q9NZQ7 with tags, fused parts or gaps): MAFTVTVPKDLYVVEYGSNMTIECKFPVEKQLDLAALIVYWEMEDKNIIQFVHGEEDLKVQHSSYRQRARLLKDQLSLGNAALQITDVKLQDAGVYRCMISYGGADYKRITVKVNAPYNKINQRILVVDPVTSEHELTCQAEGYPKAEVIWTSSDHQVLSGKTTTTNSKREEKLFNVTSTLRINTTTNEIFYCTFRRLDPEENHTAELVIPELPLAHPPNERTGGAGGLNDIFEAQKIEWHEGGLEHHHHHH
Assay [4] concerns the target T3, hPD-L1. In words: Fluorescence polarization of ROX-labeled SPAM with hPD-L1. Details: designed from A18 to T239 with a methionine added to the N-terminus; hexahistidine tag (C); made in house. In kind it is binding. Here is the method:
To evaluate the affinity of SPAM for hPD-L1 and hPD-L1*, we measured the KD by fluorescence polarization. […] The resulting values were plotted against the concentration of hPD-L1 or hPD-L1* and fit to a one-site saturation binding model with GraphPad Prism.
A stock solution of hPD-L1 or hPD-L1* with a 5 μM starting concentration was prepared and serially diluted to concentrations ranging from 5 μM to 2.4 nM. […] The fluorescence polarization of each sample was measured on a Synergy H4 Hybrid Multi-Mode Microplate Reader. Each measurement was carried out in triplicate and the mean value was calculated. The values were fit to a one-site saturation binding model in GraphPad Prism to obtain the corresponding equilibrium dissociation constants.
On the technique in general: Fluorescence polarisation rises when a labelled molecule tumbles more slowly, as on binding a larger partner.
Target sequence in this assay (Q9NZQ7 with tags, fused parts or gaps): as above

The target of assay [5] is T3, hPD-L1. In words: Radiolabeled [35S] peptide binding assay on glycosylated hPD-L1*. Details: The hPD-L1* vector included amino acids A18-T239, an Avi Tag and a hexahistidine tag; hexahistidine tag; made in house; host or cells: Expi293F. Here is the method:
as §1, §2
Target sequence in this assay (Q9NZQ7 18-239): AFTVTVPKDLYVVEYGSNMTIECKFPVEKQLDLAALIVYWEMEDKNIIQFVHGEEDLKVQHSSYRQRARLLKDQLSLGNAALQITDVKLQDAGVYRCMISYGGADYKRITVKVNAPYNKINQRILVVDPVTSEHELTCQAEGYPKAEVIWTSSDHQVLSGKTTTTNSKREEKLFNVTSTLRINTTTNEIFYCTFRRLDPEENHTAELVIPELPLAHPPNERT

Assay [6] concerns the target T4, mouse PD-L1 (mPD-L1) (Mus musculus, UniProt Q9EP73).
T4 construct: The expression construct for mPD-L1 consisted of its extracellular domain (from A18 to H239) with a methionine added to the N-terminus; hexahistidine tag (C); made in house; host or cells: E. coli BL21 (DE3)
In words: Radiolabeled [35S] peptide binding assay on mPD-L1. The following applies: [35S]-labeled peptide. Here is the method: as §1, §2

T4 sequence (Q9EP73 with tags, fused parts or gaps): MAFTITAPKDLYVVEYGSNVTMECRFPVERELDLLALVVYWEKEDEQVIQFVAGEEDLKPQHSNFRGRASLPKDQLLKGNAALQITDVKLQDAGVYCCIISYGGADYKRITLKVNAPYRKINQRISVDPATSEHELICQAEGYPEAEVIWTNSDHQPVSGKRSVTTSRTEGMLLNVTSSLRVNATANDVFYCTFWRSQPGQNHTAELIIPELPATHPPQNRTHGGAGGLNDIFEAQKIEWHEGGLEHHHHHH
T2 sequence (Q9EP73 19-290): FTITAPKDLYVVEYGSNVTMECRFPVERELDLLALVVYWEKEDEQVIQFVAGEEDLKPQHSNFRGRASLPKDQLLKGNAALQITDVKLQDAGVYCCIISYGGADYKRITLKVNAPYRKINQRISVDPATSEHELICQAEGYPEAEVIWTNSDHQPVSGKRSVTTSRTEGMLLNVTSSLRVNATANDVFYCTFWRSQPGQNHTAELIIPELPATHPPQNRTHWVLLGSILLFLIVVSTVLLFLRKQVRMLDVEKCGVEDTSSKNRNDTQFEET

On to `C#CC[C@H](NC(=O)CNC(=O)[C@H](CO)NC(=O)[C@H](C)NC(=O)[C@H](Cc1ccc(O)cc1)NC(=O)[C@H](Cc1c[nH]cn1)NC(=O)[C@H](CC(C)C)NC(=O)[C@@H](NC(=O)[C@H](Cc1c[nH]c2ccccc12)NC(=O)[C@H](Cc1ccccc1)NC(=O)[C@H](CCCCN)NC(=O)[C@H](CC(N)=O)NC(=O)[C@H](CC(C)C)NC(=O)[C@@H](NC(=O)[C@H](Cc1c[nH]cn1)NC(=O)[C@H](CC(=O)O)NC(=O)[C@H](CC(C)C)NC(=O)[C@H](Cc1ccccc1)NC(=O)[C@@H](NC(=O)[C@@H]1CCCN1C(=O)[C@@H](N)CCSC)[C@@H](C)CC)[C@@H](C)CC)[C@@H](C)CC)C(N)=O` (stereo in doubt) [SPAM], for which the “binding to hPD-L2” value in assay [1] was “no significant binding; also recorded: essentially no binding”. For the same compound, the “blocking of Fluorescein-16373 and Fluorescein-16377 in CHO-mPD-L1 cells” value in assay [2] was “blocking was absent”. Further, the “[35S]-labeled peptide pull-down by immobilized hPD-L1” value in assay [3] was “efficiently pulled-down”. In addition, the dissociation constant (Kd) in assay [4] (non-glycosylated hPD-L1, T=21° C., 100 nM ROX-SPAM, read-out: dissociation constant (KD) for hPD-L1) was 119 nM; in assay [4] (range over glycosylated and non-glycosylated hPD-L1, read-out: KD for hPD-L1), 67 to 119 nM. The “[35S]-labeled peptide capture by hPD-L1*” value in assay [5] is “captured”. In addition, the “binding to mPD-L1” value in assay [6] is “not pulled-down; also recorded: essentially no binding; also recorded: no significant binding”.

The values are drawn from patent US12643935B2, “PD-L1 binding peptides” (UNIVERSITY OF SOUTHERN CALIFORNIA, priority 2020, dated 2026).
